# Experimental data reported in paper PMC5672024, “Selective Glucocorticoid Receptor Properties of GSK866 Analogs with Cysteine Reactive Warheads” (Frontiers in Immunology, 2017).
# Assays:
# Assay type in all cases: cell-based
# [1] = tested on: IL6 mRNA; assay: qPCR of TNF-inducible IL6 in HaCat cells; settings: 6 h, 10, 100 or 1,000 nM, TNF 2,500 IU/ml last 4 h
# Procedure: qPCR was performed using the GoTaq qPCR Master Mix (Promega) according to manufacturer’s instructions. In short, a 25 µl reaction volume mix per sample was prepared containing 12.5 µl GoTaq qPCR Master Mix, 0.4 µM forward and reverse primer, and nuclease-free water. We used the Rotor-Gene Q qPCR machine of Qiagen with following PCR program: 95°C for 2 min, 40 cycli denaturation (95°C, 15 s) and annealing/extension (60°C, 30 s), and dissociation (60–95°C). […] Each sample was run in triplicate. The median value of the triplicates were taken to calculate the deltaCt-values using GAPDH as the normalization gene.
# (A) QPCR assays was performed against the GR target gene GILZ/TSC22D3 in HaCat cells treated for 6 h with different concentrations 10, 100 or 1,000 nM Dex or UAMC-1217. Bar graph plot represents the relative mRNA levels of GILZ/TSC22D3 upon Dex or UAMC-1217 treatment. (B) QPCR assays was performed against the TNF-inducible inflammatory gene interleukin-6 (IL6) in HaCat cells treated for 6 h with different concentrations 10, 100, or 1,000 nM Dex or UAMC-1217 either or not, cotreated for the last 4 h with TNF (2,500 IU/ml) as indicated in panel (B). […] Significant mean differences versus control setups panel (A) or TNF treated setup panel (B) are marked as *** (P < 0.001), **(P < 0.01), * (P < 0.05) and were determined by one-way ANOVA (Dunnetts Posttest).
# [2] = tested on: GR Ser211 phosphorylation; assay: Western blot of GR Ser211 phosphorylation; settings: for concentration dependence of GR Ser211 phosphorylation: HaCat cells, 6 h, 10, 100 or 1,000 nM
# Procedure: Whole cell extracts contain multiple protease inhibitors (Complete Mini®, Roche) and Halt phosphatase inhibitor cocktail (Thermoscientific). Soluble protein extracts were obtained after three times freeze and thaw cycles and centrifugation at […] for 15 min at 4°C. Samples were separated by sodium dodecyl sulfate-polyacrylamidegel electrophoresis (SDS-PAGE) and transferred onto nitrocellulose membranes (Hybond C, Amersham) following standard protocols. After blocking, membranes were incubated overnight at 4°C with the primary antibodies: anti-GR (sc-8992, SantaCruz Biotechnology), anti-phospho-GR Ser211 (4161, Cell Signalling) and anti-Actin (A3853, Sigma-Aldrich) followed by dye-conjugated secondary antibodies (LI-COR® Biosciences). Bound complexes were detected with the Odyssey® infrared imaging system (LI-COR®) and quantified by Image J software.
# Figure 5 Selective glucocorticoid receptor agonist GSK866 and its analogs UAMC-1217, UAMC-1218 trigger glucocorticoid receptor (GR) Ser211 phosphorylation. (A) Western detection of expression levels of Actin, GR, and GR Ser S211 phosphorylation in HaCat cells following 6 h treatment with 1 µM Dex, UAMC-1217, UAMC-1218, or GSK866. (B) Bar plot representation of Western blot intensities of Actin, GR, and GR Ser S211 phosphorylation observed in panel A, as quantified by Image J. (C) Western detection of expression levels of Actin, GR expression, and Ser S211 phosphorylation in HaCat cells following 6 h treatment with, respectively, 10, 100, or 1,000 nM Dex or UAMC-1217. (D) Bar plot representation of Western blot intensities of Actin, GR, and GR Ser S211 phosphorylation observed in panel (C), as quantified by free Image J software.
# [3] = tested on: TNF-induced NFκB reporter gene activity in L929sA cells; assay: p(NFκB)3-50luc reporter gene assay with TNF (NFκB transrepression); settings: TNF 2,500 IU/ml; for inhibition at 0.01 µM: L929sA, 10 nM compound
# Procedure: In order to compare transactivation and transrepression potencies of the different synthesized GSK866 analogs, we performed GRE- and NFκB-luciferase-dependent reporter gene studies in stable transfected cell lines, as previously described ([3], [8]). HaCat cells expressing p(GRE)2 50-Luc and L929sA cells expressing p(GRE)250-Luc or p(NFκB)350-Luc were cultured in DMEM medium with 1% L-glutamine, supplemented with 10% feral bovine serum (FBS), 100 µg/ml streptomycin, and 100 IU/mL penicillin in a humidified 5% CO2 atmosphere. Cells were passaged every 2 days at a dilution of 1:6. Reporter gene cells were plated at a density of 0.5 × 10^5 cells/well in 24 well plates and grown overnight. p(GRE)250-Luc-dependent reporter gene cells were treated with solvent (DMSO) or compound (100 fM, 1 nM, 10 nM, 100 nM, and 1 µM) for 6 h, whereas in case of p(NFκB)350-Luc, TNF (2,500 IU/mL) was added 2 h following compound treatment. After incubation with the compounds, medium was removed and cells were washed twice with PBS followed by adding 100 µl of 1× lysis buffer (0.2 M K2HPO4, 0.2 M KH2PO4, Triton X-100, pH 7.6). 25 µl of lysate was assayed for luciferase activity by adding 50 µl of luciferase assay substrate (1 mM luciferin or luciferin salt, 3 mM ATP, and 15 mM MgSO4 in 30 mM HEPES buffer, pH 7.8) followed by 10 s mixing and measuring 1 s bioluminescence using an Envision multilabel reader (Perkin Elmer).
# Figure 3 Selective glucocorticoid receptor agonist GSK866 analogs UAMC-1217, UAMC-1218 but not UAMC-1158 and UAMC-1159 elicit selective glucocorticoid receptor-transactivation and NFκB-transrepression properties. Glucocorticoid response element (GRE)- and NFκB-luciferase-dependent reporter gene assays were performed in L929sA and HaCat reporter cells which were stably transfected with, respectively, p(NFκB)3-50luc or p(GRE)2-50-luc constructs. For p(GRE)2-50-luc reporter assays, cells were solvent-treated or induced with different concentrations of Dex (A), Dex-mesylate (Dex-Mes) (A), SEGRA GSK866 (C) or analogs UAMC-1158 (D), UAMC-1159 (E), UAMC-1217 (F), and UAMC-1218 (G) as indicated for a total exposure time of 6 h, whereas cells were cotreated for TNF (2,500 IU/ml) in the last 4 h for p(NFkB)3-50luc reporter assays (B–G). Corresponding lysates were assayed for luciferase activities and normalized for protein content as described in the Section “Materials and Methods.” Promoter activities are expressed as relative induction factor (± standard deviation) i.e., the ratio of expression levels recorded either at induced and non-induced conditions, with the latter taken to be 1.
SMILES,TNF-induced IL6 gene expression [1],concentration dependence of GR Ser211 phosphorylation [2],inhibition at 0.01 µM [3] [%],"GR Ser211 phosphorylation ([2]; 1 µM, 6 h (UAMC-1158: Figure S2, 4 or 24 h))",NFκB transrepression in NFκB-luc reporter ([3]; dose range)
"C[C@@H]1C[C@H]2[C@@H]3CCC4=CC(=O)C=C[C@]4(C)[C@@]3(F)[C@@H](O)C[C@]2(C)[C@@]1(O)C(=O)CO [Dex, Dexamethasone, reference compound]",dose-dependently reverse TNF induced IL6 gene expression,concentration-dependent increase of GR Ser211 phosphorylation,40 to 45,,
CCN(C[C@@](O)(CNC(=O)c1cnn(-c2ccc(F)cc2)c1N)C(F)(F)F)C(=O)c1c(Cl)ccc(NC(=O)CCl)c1Cl [UAMC-1217],dose-dependently reverse TNF induced IL6 gene expression,concentration-dependent increase of GR Ser211 phosphorylation,~95,enhance the Ser211 phosphorylation,dose-dependent NFκB-transrepression effects
